One assay deals with ring stage parasites. As to the kind of experiment: Parasite growth potency assay, 72 hours, LDH readout. As to conditions: 72 h, parasite growth measured by LDH assay after 72 hours at 37° C.; 0.7% rings, 2% haematocrit; read-out: EC50. It counts as cell-based. The gist of the method:
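Parasite growth was quantified by LDH assay after a −80 °C freeze-thaw. Before that, compound was incubated for 72 h at 37 °C under humidified gas with ring-stage cultures adjusted to 0.7% parasitemia and 2% haematocrit in serum- and albumax-supplemented RPMI-Hepes.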
As to `CCC1(CC)CC(=O)N([C@H](CCOC)c2cc(F)cc(C(=O)N[C@H]3c4ccccc4CC3(C)O)c2)C(=N)N1` (single isomer, unassigned) [Example 144A, 3-[1-(4,4-diethyl-2-imino-6-oxo-hexahydropyrimidin-1-yl)-3-methoxy-propyl]-5-fluoro-N-(2-hydroxy-2-methyl-indan-1-yl)benzamide], the EC50 is 81.6 nM.

For the molecule `CCC1(CC)CC(=O)N([C@@H](CC(C)C)c2cccc(C(=O)N[C@H]3CCOc4ccccc43)c2)C(=N)N1` [Example 14B, [1-[1-[3-[[(4S)-chroman-4-yl]carbamoyl]phenyl]-3-methyl-butyl]-4,4-diethyl-6-oxo-hexahydropyrimidin-2-ylidene]ammonium; 2,2,2-trifluoroacetate], the EC50 was determined as 55 nM.

`CCC1(CC)CC(=O)N(C(COC)c2cccc(C(=O)N[C@@H]3c4ccccc4C[C@H]3O)c2)C(=N)N1` (stereo partly drawn) [Example 223, 3-[1-(4,4-diethyl-2-imino-6-oxo-hexahydropyrimidin-1-yl)-2-methoxy-ethyl]-N-[(1R,2R)-2-hydroxyindan-1-yl]benzamide]: the EC50 amounted to 2.3 nM.

Consider `CC[C@@]1(C)CC(=O)N([C@H](CCOC(F)F)c2cccc(C(=O)N[C@@H]3c4ccccc4C[C@H]3O)c2)C(=N)N1` [Example 172, [(4S)-1-[3-(difluoromethoxy)-1-[3-[[(1R,2R)-2-hydroxyindan-1-yl]carbamoyl]phenyl]propyl]-4-ethyl-4-methyl-6-oxo-hexahydropyrimidin-2-ylidene]ammonium; 2,2,2-trifluoroacetate], for which the EC50 stood at 1.7 nM.

Turning to `CC1(C)CC(=O)N(Cc2cccc(C(=O)N[C@@H]3c4ccccc4OC(C)(C)C3(C)O)c2)C(=N)N1` (stereo in doubt) [Example 185, N-(3-hydroxy-2,2,3-trimethyl-chroman-4-yl)-3-[(2-imino-4,4-dimethyl-6-oxo-hexahydropyrimidin-1-yl)methyl]benzamide], the EC50 stood at 62.5 nM.

Take `CCC1(CC)CC(=O)N([C@H](c2cncnc2)c2cccc(C(=O)N[C@@H]3c4ccccc4C[C@H]3O)c2)C(=N)N1` [Example 110B, 3-[(4,4-diethyl-2-imino-6-oxo-hexahydropyrimidin-1-yl)-pyrimidin-5-yl-methyl]-N-[(1R,2R)-2-hydroxyindan-1-yl]benzamide]: the concentration giving a half-maximal response (EC50) worked out at 8.3 nM.

Turning to `CCC1(CC)CC(=O)N([C@H](CCOC(F)F)c2cccc(C(=O)N[C@H]3CCOc4ccccc43)c2)C(=N)N1` [Example 164, [1-[1-[3-[[(4S)-chroman-4-yl]carbamoyl]phenyl]-3-(difluoromethoxy)propyl]-4,4-diethyl-6-oxo-hexahydropyrimidin-2-ylidene]ammonium; 2,2,2-trifluoroacetate], the EC50 stood at 0.9 nM.

On to `CCC1(CC)CC(=O)N(Cc2ccnc(C(=O)N[C@@H]3c4ccccc4C[C@H]3O)c2)C(=N)N1` [Example 36, [4,4-diethyl-1-[[2-[[(1R,2R)-2-hydroxyindan-1-yl]carbamoyl]-4-pyridyl]methyl]-6-oxo-hexahydropyrimidin-2-ylidene]ammonium; 2,2,2-trifluoroacetate], for which the EC50 is 16.8 nM.

As for `CC1(C)CC(=O)N(Cc2cccc(C(=O)N[C@@H]3c4cc(F)ccc4OC(C)(C)[C@H]3O)c2)C(=N)N1` [Example 182, [1-[[3-[[(3S,4R)-6-fluoro-3-hydroxy-2,2-dimethyl-chroman-4-yl]carbamoyl]phenyl]methyl]-4,4-dimethyl-6-oxo-hexahydropyrimidin-2-ylidene]ammonium; 2,2,2-trifluoroacetate], the EC50 is 5.4 nM.

For the molecule `CCC1(CC)CC(=O)N(Cc2cccc(C(=O)N[C@H]3CCOc4ccccc43)c2F)C(=N)N1` [Example 20, [1-[[3-[[(4S)-chroman-4-yl]carbamoyl]-2-fluoro-phenyl]methyl]-4,4-diethyl-6-oxo-hexahydropyrimidin-2-ylidene]ammonium; 2,2,2-trifluoroacetate], the EC50 worked out at 10.9 nM.

In the case of `CCC1(CC)CC(=O)N([C@H](CCOC)c2cc(F)cc(C(=O)NC3CCCOc4ccccc43)c2)C(=N)N1` (stereo in doubt) [Example 220, [4,4-diethyl-1-[1-[3-fluoro-5-(2,3,4,5-tetrahydro-1-benzoxepin-5-ylcarbamoyl)phenyl]-3-methoxy-propyl]-6-oxo-hexahydropyrimidin-2-ylidene]ammonium; 2,2,2-trifluoroacetate], the EC50 came out at 2.4 nM.

Turning to `CC(C)[C@]1(C)CC(=O)N([C@@H](c2cccc(C(=O)N[C@@H]3c4ccccc4C[C@H]3O)c2)C23CC(C2)C3)C(=N)N1` [Example 28, [(4S)-1-[1-bicyclo[1.1.1]pentanyl-[3-[[(1R,2R)-2-hydroxyindan-1-yl]carbamoyl]phenyl]methyl]-4-isopropyl-4-methyl-6-oxo-hexahydropyrimidin-2-ylidene]ammonium; 2,2,2-trifluoroacetate], the concentration giving a half-maximal response (EC50) turned out to be 1.1 nM.

In the case of `N=C1N[C@@](CC2CC2)(c2ccccc2)CC(=O)N1Cc1cccc(C(=O)N[C@@H]2CCOc3ccccc32)c1` [Example 6B, [(4R)-1-[[3-[[(4R)-chroman-4-yl]carbamoyl]phenyl]methyl]-4-(cyclopropylmethyl)-6-oxo-4-phenyl-hexahydropyrimidin-2-ylidene]ammonium; 2,2,2-trifluoroacetate], the EC50 is 83.9 nM.

For the molecule `CCC1(CC)CC(=O)N(Cc2cc(F)cc(C(=O)N[C@@H]3c4ccccc4OC(C)(C)[C@H]3O)c2)C(=N)N1` [Example 141, [4,4-diethyl-1-[[3-fluoro-5-[[(3S,4R)-3-hydroxy-2,2-dimethyl-chroman-4-yl]carbamoyl]phenyl]methyl]-6-oxo-hexahydropyrimidin-2-ylidene]ammonium; 2,2,2-trifluoroacetate], the EC50 amounted to 0.8 nM.

The assay is the same for the next values; noted with them: parasite growth measured by LDH assay after 72 hours at 37° C.; 0.7% rings, 2% haematocrit; read-out: EC50.
With `CCC1(CC)CC(=O)N([C@H](CCOC(F)F)c2cccc(C(=O)N[C@@H]3c4ccccc4C[C@]3(C)O)c2)C(=N)N1` [Example 158B, 3-[1-(4,4-diethyl-2-imino-6-oxo-hexahydropyrimidin-1-yl)-3-(difluoromethoxy)propyl]-N-[(1R,2S)-2-hydroxy-2-methyl-indan-1-yl]benzamide], the concentration for a half-maximal effect (EC50) is 2.4 nM.

Regarding `CCC1(CC)CC(=O)N([C@H](CCOC)c2cccc(C(=O)NC3c4ccccc4C(F)(F)C3O)c2)C(=N)N1` (stereo partly drawn) [Example 189B, [1-[(1R)-1-[3-[(3,3-difluoro-2-hydroxy-indan-1-yl)carbamoyl]phenyl]-3-methoxy-propyl]-4,4-diethyl-6-oxo-hexahydropyrimidin-2-ylidene]ammonium; chloride], the EC50 came to 292 nM.

Still in this assay, the particulars now being: parasite growth measured by LDH assay after 72 hours at 37° C.; 0.7% rings, 2% haematocrit; trifluoroacetate; read-out: EC50.
`CCC1(CC)CC(=O)N(Cc2cccc(C(=O)N[C@H]3C[C@H](C(F)(F)F)Oc4ccccc43)c2)C(=N)N1` (stereo in doubt) [Example 97, [4,4-diethyl-6-oxo-1-[[3-[[2-(trifluoromethyl)chroman-4-yl]carbamoyl]phenyl]methyl]hexa-hydropyrimidin-2-ylidene]ammonium; 2,2,2-trifluoroacetate]: the EC50 was determined as 10.6 nM.

Take `CCC1(CC)CC(=O)N(Cc2cccc(C(=O)NC3CC(C)(C)Oc4ccccc43)c2)C(=N)N1` (single isomer, unassigned) [Example 51B, [1-[[3-[(2,2-dimethylchroman-4-yl)carbamoyl]phenyl]methyl]-4,4-diethyl-6-oxo-hexahydropyrimidin-2-ylidene]ammonium; 2,2,2-trifluoroacetate]: the EC50 came out at 0.5 nM.

The values are drawn from US12629374B2, “Antimalarial agents” (Merck Sharp & Dohme LLC, priority 2020, dated 2026).
